Tests used:
DUOC-01 cells [1] = assay: Stability of day 21 DUOC-01 cells incubated with HC or Dex: viability (AOPI) and total viable cell count; format: cell-based, human; settings: for Averaged total viable cell numbers: DUOC-01 cells in Ringers, HC 3 mg/ml or Dex 25 ng/ml, average of six experiments
Protocol: FIG. 1 illustrates that HC increases the viability of DUOC-01 cells over time. Viability was measured by AOPI using the Nexcelom Cellometer Auto 2000 (n=6 samples per time point; 2-way ANOVA p<0.001 for treatment factor; Tukey's post-hoc[…]).
(§1) First, to test stability, day +21 DUOC-01 cells were harvested into ringers lactate and incubated with HC for up to 4 hours to determine whether there was any change in viability or stability.
(§2) DUOC-01 cells were cultured using standard procedures from cryopreserved and thawed cord blood units, then harvested on day 21 and re-suspended in Ringers. After initial count and viability, the cell suspension was divided into three conditions: (1) Ringer's solution, (2) 3 mg/ml HC, (3) 25 ng/ml Dex.
(§3) Based on previous stability studies, the cells were incubated for 4 hours at room temperature and characterized every hour for 4 hours. The viability of DUOC-01 cells over time was consistently greater with cells incubated with HC compared to DUOC-01 cells incubated with dexamethasone or Ringer's solution (FIG. 1).

DUOC-01 cells [2] = assay: Surface marker expression of DUOC-01 cells by flow cytometry after adding HC or Dex; format: cell-based, human; settings: up to 4 hours after adding HC (3 mg/ml) or Dex (25 ng/ml)
Protocol: DUOC-01 cells were collected 4 hours after adding HC or dexamethasone (Dex). The expression of CD45 (FIG. 2A), CD11b (FIG. 2B), Trem2 (FIG. 2C), and CD14 (FIG. 2D) were analyzed by flow cytometry (n=6 per condition).
as §1, §2, §3

[3] = test system: corpus callosum of NSG mice treated with cuprizone; assay: Cuprizone demyelination model, myelination score by LFB-PAS staining; format: in vivo; settings: one week after injection into corpus callosum of CPZ-treated mice; 1×10^5 cells; cells incubated 2 hours in 3 mg/ml HC where HC is used
Description: Myelination score based on LFB-PAS staining of mice one week after treatment of CPZ-treated mice with, Ringer's, Ringers+HC, DUOC-01 cells, or DUOC-01 cells exposed to HC (1×10^5 cell injected). […] Two independent, blinded readers scored coded LFB-PAS stained sections at the mid-line corpus callosum area, between zero and 3. Data are presented as mean ±SEM (ANOVA for cells P<0.001; n=9-16 mice per group, *P<0.05, Tukey's post-hoc test; pooled 2 independent experiments). […] DUOC-01 cells were cultured via standard procedures from frozen cord blood units in the GMP facility and harvested on day 21. After initial count and viability, the cell suspension was split into two conditions at a concentration of 20,000 cells/μl: (1) Ringers, and (2) Ringers +3 mg/ml HC. Based on previous stability studies, the cells were incubated in HC for 2 hours at room temperature prior to injections. To determine if HC would affect the ability of DUOC-01 cells to promote remyelination, Ringer's solution or DUOC-01 cells was injected into the corpus callosum of NSG mice treated with cuprizone, as previously described (Saha et al. JCI Insight 2016). One week following treatment, brains were harvested and analysis of myelination by LFB-PAS staining was conducted.

Row | Compound | Averaged total viable cell numbers (DUOC-01 cells [1]; 1 hr at room temperature) | Averaged total viable cell numbers (DUOC-01 cells [1]; 2 hr at room temperature) | Averaged total viable cell numbers (DUOC-01 cells [1]; 3 hr at room temperature) | Averaged total viable cell numbers (DUOC-01 cells [1]; 4 hr at room temperature) | Viability of DUOC-01 cells over time (AOPI) (DUOC-01 cells [1]; up to 4 hours, 3 mg/ml HC, compared with dexamethasone or Ringer's solution) | Expression level of DUOC-01 surface markers (CD45, CD14, TREM2, CD11b) (DUOC-01 cells [2]) | Remyelination (myelination score, LFB-PAS, mid-line corpus callosum) [3]
1 | C[C@@H]1C[C@H]2[C@@H]3CCC4=CC(=O)C=C[C@]4(C)[C@@]3(F)[C@@H](O)C[C@]2(C)[C@@]1(O)C(=O)CO [Dexamethazone, dexamethasone] | 923,563 | 813,750 | 821,250 | 706,875 |  |  | 
2 | C[C@]12CCC(=O)C=C1CC[C@@H]1[C@@H]2[C@@H](O)C[C@@]2(C)[C@H]1CC[C@]2(O)C(=O)CO [HC, hydrocortisone] | 959,688 | 821,667 | 910,604 | 742,000 | improved the viability | did not change the expression level | did not inhibit the ability of DUOC-01 cells to promote remyelination

Reference: patent publication US11278575B2, “Compositions and methods for the treatment of demyelinating conditions” (Duke University, priority 2018, dated 2022)
